Consider 35 molecules from patent US9663513B2, “Pyrimidine PDE10 inhibitors” (Merck Sharp & Dohme Corp., priority 2012, dated 2017).

pKi: −log10 of the molar value.

The target in the test is human PDE10A2 (Homo sapiens (Human), UniProt Q9Y233). The experiment in a line: PDE10 fluorescence polarization (IMAP FP) inhibition assay. It counts as biochemical. As to conditions: human PDE10A2 from transfected AD293 cells; FAM-labeled cAMP 50 nM; apparent inhibition constant; read-out: PDE10A Ki. As for the experimental part: The activity of the compounds in accordance with the present invention as PDE10 inhibitors may be readily determined without undue experimentation using a fluorescence polarization (FP) methodology that is well known in the art (Huang, W., et al., J. Biomol Screen, 2002, 7: 215).
Sequence of human PDE10A2 (Q9Y233 267-1055): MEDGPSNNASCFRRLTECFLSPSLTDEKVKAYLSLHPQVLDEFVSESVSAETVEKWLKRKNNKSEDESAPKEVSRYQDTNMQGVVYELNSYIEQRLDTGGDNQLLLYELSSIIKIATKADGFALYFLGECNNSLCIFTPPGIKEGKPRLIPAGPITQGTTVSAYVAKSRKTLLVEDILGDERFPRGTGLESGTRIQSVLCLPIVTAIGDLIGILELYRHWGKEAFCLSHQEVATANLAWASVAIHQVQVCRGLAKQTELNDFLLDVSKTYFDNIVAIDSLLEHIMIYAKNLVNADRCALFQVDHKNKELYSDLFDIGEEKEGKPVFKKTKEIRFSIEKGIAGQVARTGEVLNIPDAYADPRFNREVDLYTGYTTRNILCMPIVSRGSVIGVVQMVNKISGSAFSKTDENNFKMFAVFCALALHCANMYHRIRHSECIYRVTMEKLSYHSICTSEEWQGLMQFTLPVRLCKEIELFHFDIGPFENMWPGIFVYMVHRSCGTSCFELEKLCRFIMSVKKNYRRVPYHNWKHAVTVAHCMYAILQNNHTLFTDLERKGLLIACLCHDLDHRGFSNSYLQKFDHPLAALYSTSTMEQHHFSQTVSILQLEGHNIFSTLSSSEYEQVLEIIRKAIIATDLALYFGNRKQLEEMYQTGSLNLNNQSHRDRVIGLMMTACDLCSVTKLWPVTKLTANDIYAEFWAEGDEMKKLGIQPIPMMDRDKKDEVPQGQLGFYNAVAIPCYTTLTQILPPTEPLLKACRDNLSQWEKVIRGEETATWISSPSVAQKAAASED
In a typical experiment the PDE10 inhibitory activity of the compounds of the present invention was determined in accordance with the following experimental method. PDE10A2 was amplified from human fetal brain cDNA (Clontech, Mountain View, Calif.) using a forward primer corresponding to nucleotides 56-77 of human PDE10A2 (Accession No. AF127480, Genbank Identifier 4894716), containing a Kozak consensus sequence, and a reverse primer corresponding to nucleotides 2406-2413 of human PDE10A2 (Accession No. AF127480, Genbank Identifier 4894716). Amplification with Easy-A polymerase (Stratagene, La Jolla, Calif.) was 95° C. for 2 minutes followed by thirty three cycles of 95° C. for 40 seconds, 55° C. for 30 seconds, and 72° C. for 2 minutes 48 seconds. Final extension was 72° C. for 7 minutes. The PCR product was TA cloned into pcDNA3.2-TOPO (Invitrogen, Carlsbad, Calif.) according to standard protocol. AD293 cells with 70-80% confluency were transiently transfected with human PDE10A2/pcDNA3.2-TOPO using Lipofectamine 2000 according to manufacturer specifications (Invitrogen, Carlsbad, Calif.). Cells were harvested 48 hours post-transfection and lysed by sonication (setting 3, 10×5 sec pulses) in a buffer containing 20 mM HEPES, 1 mM EDTA and protease inhibitor cocktail (Roche). Lysate was collected by centrifugation at 75,000×g for 20 minutes. Supernatant containing the cytoplasmic fraction was used for evaluation of PDE10A2 activity. The fluorescence polarization assay for cyclic nucleotide phosphodiesterases was performed using an IMAP® FP kit supplied by Molecular Devices, Sunnyvale, Calif. (product # R8139). IMAP® technology has been applied previously to phosphodiesterase assays (Huang, W., et al., J. Biomol Screen, 2002, 7: 215). Assays were performed at room temperature in 384-well microtiter plates with an incubation volume of 20.2 μL. Solutions of test compounds were prepared in DMSO and serially diluted with DMSO to yield 8 μL of each of 10 solutions differing by 3-fold in concentration, at 32 serial dilutions per plate. […] 0% of inhibition is determined by using DMSO (1% final concentrations).
A Labcyte Echo 555 (Labcyte, Sunnyvale, Calif.) is used to dispense 200 nL from each well of the titration plate to the 384 well assay plate. A solution of enzyme (1/1600 dilution from aliquots; sufficient to produce 20% substrate conversion) and a separate solution of FAM-labeled cAMP PDE from Molecular Devices (product # R7506), at a final concentration of 50 nM are made in the assay buffer (10 mM Tris HCl, pH 7.2, 10 mM MgCl2, 0.05% NaN3 0.01% Tween-20, and 1 mM DTT). The enzyme and the substrate are then added to the assay plates in two consecutive additions of 10 μL, and then shaken to mix. The reaction is allowed to proceed at room temperature for 30 minutes. […] The enzymatic reaction is stopped by addition of 60 μL of the binding solution to each well of the assay plates and the plates are sealed and shaken for 10 seconds. The plate was incubated at room temperature for at least one hour prior to determining the fluorescence polarization (FP). The parallel and perpendicular fluorescence of each well of the plate was measured using a Perkin Elmer EnVision™ plate reader (Waltham, Mass.).
Fluorescence polarization (mP) was calculated from the parallel (S) and perpendicular (P) fluorescence of each sample well and the analogous values for the median control well, containing only substrate (So and Po), using the following equation: Polarization(mP)=1000*(S/So−P/Po)/(S/So+P/Po).
Dose-inhibition profiles for each compound were characterized by fitting the mP data to a four-parameter equation given below.
Regarding `Cc1ncc(-c2ccncc2)c(OC[C@H]2C[C@@H]2c2ccc3ccccc3n2)n1` (single isomer, unassigned) [Example 26], the pKi was 10.70.

As for `Cc1ncc(-c2ccncc2)c(OC[C@H]2C[C@@H]2c2ccc3ccccc3n2)n1` (single isomer, unassigned) [Example 27], the pKi was 9.03. As for `COc1ccc(-c2cnc(C)nc2OC[C@H]2C[C@@H]2c2ccc3ccccc3n2)cc1` (single isomer, unassigned) [Example 28], the pKi is 10.00. Under `COc1ccc(-c2cnc(C)nc2OC[C@H]2C[C@@H]2c2ccc3ccccc3n2)cc1` (single isomer, unassigned) [Example 29] stands 8.78; under `CCc1ccc(-c2cnc(C)nc2OC[C@H]2C[C@@H]2c2ccc3ccccc3n2)cc1` (single isomer, unassigned) [Example 30], 9.43; under `CCc1ccc(-c2cnc(C)nc2OC[C@H]2C[C@@H]2c2ccc3ccccc3n2)cc1` (single isomer, unassigned) [Example 31], 8.10. Then `Cc1ncc(-c2ccc(C(C)O)cc2)c(OC[C@H]2C[C@@H]2c2ccc3ccccc3n2)n1` (single isomer, unassigned) [Example 34], with 11.00. Turning to `Cc1ncc(-c2ccc(C(C)O)cc2)c(OC[C@H]2C[C@@H]2c2ccc3ccccc3n2)n1` (single isomer, unassigned) [Example 35], the pKi was 8.98. Then `Cc1ncc(-c2ccc(CO)cc2)c(OC[C@H]2C[C@@H]2c2ccc3ccccc3n2)n1` (single isomer, unassigned) [Example 38], with 10.52.

As to `Cc1ncc(-c2ccc(CO)cc2)c(OC[C@H]2C[C@@H]2c2ccc3ccccc3n2)n1` (single isomer, unassigned) [Example 39], the pKi was 9.06.

Regarding `CCOc1cccc(-c2cnc(C)nc2OC[C@H]2C[C@@H]2c2ccc3ccccc3n2)c1` (single isomer, unassigned) [Example 40, 2,2,2-trifluoroacetate], the pKi is 10.40.

Regarding `CCOc1cccc(-c2cnc(C)nc2OC[C@H]2C[C@@H]2c2ccc3ccccc3n2)c1` (single isomer, unassigned) [Example 41, 2,2,2-trifluoroacetate], the pKi was 8.29.

Turning to `Cc1ccc([C@H]2C[C@@H]2COc2nc(C)ncc2-c2ccc(C(C)(C)O)nc2)nc1` (single isomer, unassigned) [Example 46], the pKi is 10.22. Then `COc1ccc([C@H]2C[C@@H]2COc2nc(C)ncc2-c2ccc([S+](C)[O-])nc2)nc1` (single isomer, unassigned) [Example 64], with 8.76; and `COc1ccc([C@H]2C[C@@H]2COc2nc(C)ncc2-c2ccc([S+](C)[O-])nc2)nc1` (single isomer, unassigned) [Example 65], with 8.58; and `Cc1ncc(-c2cnc3[nH]ncc3c2)c(OC[C@H]2C[C@@H]2c2ccc3ccccc3n2)n1` (single isomer, unassigned) [Example 151], with 10.70.

In the case of `Cc1ncc(-c2cnc3[nH]ncc3c2)c(OC[C@H]2C[C@@H]2c2ccc3ccccc3n2)n1` (single isomer, unassigned) [Example 152], the pKi is 8.75. As to `Cc1ncc(-c2ccc(C(C)(C)O)nc2)c(OC[C@H]2C[C@@H]2c2ncccc2C)n1` (single isomer, unassigned) [Example 173], the pKi was 9.29. As to `Cc1ncc(-c2ccc(C(C)(C)O)nc2)c(OC[C@H]2C[C@@H]2c2ncccc2C)n1` (single isomer, unassigned) [Example 174], the pKi was 8.07. On to `Cc1cccc([C@H]2C[C@@H]2COc2nc(C)ncc2-c2ccc(C(C)(C)O)nc2)n1` (single isomer, unassigned) [Example 175], for which the pKi was 9.70.

For the molecule `Cc1ccnc([C@H]2C[C@@H]2COc2nc(C)ncc2-c2ccc(C(C)(C)O)nc2)c1` (single isomer, unassigned) [Example 177], the pKi was 9.42. Then `Cc1ccnc([C@H]2C[C@@H]2COc2nc(C)ncc2-c2ccc(C(C)(C)O)nc2)c1` (single isomer, unassigned) [Example 178], with 7.45; and `CCc1ccc([C@H]2C[C@@H]2COc2nc(C)ncc2-c2ccc(C(C)(C)O)nc2)nc1` (single isomer, unassigned) [Example 180], with 8.23. Under `CCc1ccc([C@H]2C[C@@H]2COc2nc(C)ncc2-c2ccc(C(C)(C)O)nc2)nc1` (single isomer, unassigned) [Example 181] stands 10.30; under `Cc1ccc([C@H]2C[C@@H]2COc2nc(C)ncc2-c2ccc(C)cc2C)nc1` [Example 2, 5-(2,4-dimethylphenyl)-2-methyl-4-(((1S,2S)-2-(5-methylpyridin-2-yl)cyclopropyl)methoxy)pyrimidine], 8.61. Under `Cc1ccc([C@H]2C[C@@H]2COc2nc(C)ncc2-c2cccc(OC(C)C)c2)nc1` [Example 3, 5-(3-isopropoxyphenyl)-2-methyl-4-(((1S,2S)-2-(5-methylpyridin-2-yl)cyclopropyl)methoxy)pyrimidine] stands 9.52.

Consider `Cc1ccc([C@H]2C[C@@H]2COc2nc(C)ncc2-c2cccc(C(C)C)c2)nc1` [Example 4, 5-(3-isopropylphenyl)-2-methyl-4-(((1S,2S)-2-(5-methylpyridin-2-yl)cyclopropyl)methoxy)pyrimidine], for which the negative logarithm of the Ki (pKi) was 8.67.

Regarding `Cc1ccc([C@H]2C[C@@H]2COc2nc(C)ncc2-c2ccccc2OC(F)(F)F)nc1` [Example 5], the pKi is 8.50. For `Cc1ccc([C@H]2C[C@@H]2COc2nc(C)ncc2-c2c(F)cccc2F)nc1` [Example 6, 5-(2,6-difluorophenyl)-2-methyl-4-(((1S,2S)-2-(5-methylpyridin-2-yl)cyclopropyl)methoxy)pyrimidine], the pKi is 8.85.

Turning to `Cc1ccc([C@H]2C[C@@H]2COc2nc(C)ncc2-c2cc(F)cc(F)c2)nc1` [Example 7, 5-(3,5-difluorophenyl)-2-methyl-4-(((1S,2S)-2-(5-methylpyridin-2-yl)cyclopropyl)methoxy)pyrimidine], the pKi is 9.34. Then `CCc1ccccc1-c1cnc(C)nc1OC[C@H]1C[C@@H]1c1ccc(C)cn1` [Example 8], with 8.49. For the molecule `Cc1ccc([C@H]2C[C@@H]2COc2nc(C)ncc2-c2ccc(F)c(C)c2)nc1` [Example 9, 5-(4-fluoro-3-methylphenyl)-2-methyl-4-(((1S,2S)-2-(5-methylpyridin-2-yl)cyclopropyl)methoxy)pyrimidine], the pKi was 8.95. For the molecule `Cc1ccc([C@H]2C[C@@H]2COc2nc(C)ncc2-c2ccc(C(F)(F)F)cc2)nc1` [Example 10, 2-methyl-4-(((1S,2S)-2-(5-methylpyridin-2-yl)cyclopropyl)methoxy)-5-(4-(trifluoromethyl)phenyl)pyrimidine], the pKi is 8.24. As to `Cc1ccc([C@H]2C[C@@H]2COc2nc(C)ncc2-c2c(C)cccc2C)nc1` [Example 11, 5-(2,6-dimethylphenyl)-2-methyl-4-(((1S,2S)-2-(5-methylpyridin-2-yl)cyclopropyl)methoxy)pyrimidine], the pKi is 8.35. Then `Cc1ccc([C@H]2C[C@@H]2COc2nc(C)ncc2-c2cccc(OC(F)(F)F)c2)nc1` [Example 12, 2-methyl-4-(((1S,2S)-2-(5-methylpyridin-2-yl)cyclopropyl)methoxy)-5-(3-(trifluoromethoxy)phenyl)pyrimidine], with 8.95.

By pKi is commonly meant the Ki on a negative log10 scale, so that one unit is a factor of ten.
